What all share (assay type): cell-based
The subject of test [1] is E. faecalis ATCC 29212. In words: In vitro antibacterial evaluation, MIC by agar dilution, E. faecalis ATCC 29212. As to conditions: Enterococcus faecalis, ATCC29212; E. faecalis ATCC 29212; read-out: MIC. In a few lines:
(§1)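 NCCLS agar dilution; Mueller-Hinton agar, 2-fold series 128 to ≤0.25 μg/mL, duplicates. Inoculum ~10^4 cfu/spot from 4-6 h log-phase broth culture. 35°-36° C, 16-20 h; MIC = lowest concentration with no growth.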
In general terms: In agar dilution, organisms are placed on agar that contains the substance at set levels.

Test [2] concerns S. haemolyticus (Meth^R). Briefly: In vitro antibacterial evaluation, MIC by agar dilution, S. haemolyticus. The conditions noted are these: Staphylococcus haemolyticus, read-out: MIC. The method in brief: as §1
Test [3] relates to S. aureus ATCC 25923. Briefly: In vitro antibacterial evaluation, MIC by agar dilution, S. aureus ATCC 25923. The conditions noted are these: Staphylococcus aureus, ATCC25923. In a few lines:
as §1

For test [4], the system named is E. coli ATCC 25922. In words: In vitro antibacterial evaluation, MIC by agar dilution, E. coli ATCC 25922. As to conditions: Escherichia coli, ATCC25922, read-out: MIC. In a few lines: as §1
The subject of test [5] is P. aeruginosa ATCC 27853. Briefly: In vitro antibacterial evaluation, MIC by agar dilution, P. aeruginosa ATCC 27853. As to conditions: Pseudomonas aeruginosa, ATCC27853, read-out: MIC. The method in brief: as §1
Test [6] deals with S. epidermidis ATCC 31432. In words: In vitro antibacterial evaluation, MIC by agar dilution, S. epidermidis ATCC 31432. The conditions noted are these: Staphylococcus epidermidis, ATCC31432. The method in brief: as §1
Test [7] concerns S. aureus 76 (Meth^R)(lac^+). Briefly: In vitro antibacterial evaluation, MIC by agar dilution, S. aureus 76. As to conditions: Staphylococcus aureus, read-out: MIC. The method in brief:
as §1

Test [8] deals with S. aureus Col8A (Meth^S)(lac^-). Briefly: In vitro antibacterial evaluation, MIC by agar dilution, S. aureus Col8A. As to conditions: Staphylococcus aureus. In a few lines: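 Log-phase isolates were spot-inoculated at about 10^4 cfu onto Mueller-Hinton agar carrying duplicate two-fold compound levels, 128 μg/mL to ≤0.25 μg/mL, following NCCLS (1991). Plates were read after 16-20 h at 35°-36° C. The lowest growth-inhibiting concentration gave the MIC (μg/ml).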

For test [9], the system named is E. faecium ATCC 35667. In words: In vitro antibacterial evaluation, MIC by agar dilution, E. faecium ATCC 35667. As to conditions: Enterococcus faecium, ATCC35667, read-out: MIC. In a few lines: as §1

As usually defined, the MIC is the lowest concentration that inhibits growth of the organism.

In brackets after ≈: the same amount, converted by molar mass. Where two headings read alike, the source gives them in different places.

As to `O=C(Cc1ccccc1)N[C@@H]1C(=O)N2C(C(=O)O)=C(Sc3ccccc3-c3cccs3)CS[C@H]12` [Cmpd 37, (7R)-7-[(Phenylacetyl)amino]-3-(2-(2-thienyl)phenylthio)-3-cephem-4-carboxylic acid], the MIC is 2 µg/mL (≈ 3.93 µM) in [1]; 16 µg/mL (≈ 31.5 µM) in test [2]; under 0.25 µg/mL in test [3]; over 32 µg/mL in [4]; over 32 µg/mL in test [5]; under 0.25 µg/mL in test [6]. The minimum inhibitory concentration (MIC) is 8 µg/mL (≈ 15.7 µM) in test [7], under 0.25 µg/mL in test [8] and 2 µg/mL (≈ 3.93 µM) in test [9].
With `O=C(Cc1ccccc1)N[C@@H]1C(=O)N2C(C(=O)[O-])=C(Sc3ccc[n+](Cc4ccccc4)c3-c3ccccc3)CS[C@H]12` [Cmpd 83, (7R)-7-[(Phenylacetyl)amino]-3-(2-phenyl-N-benzylpyridin-3-iumthio)-3-cephem-4-carboxylate], the MIC in test [1] was 1 µg/mL (≈ 1.68 µM); in [2] it was 32 µg/mL (≈ 53.9 µM); in [3] it was under 0.25 µg/mL; in test [4], over 32 µg/mL; in [5], over 32 µg/mL; in test [6], under 0.25 µg/mL. Moreover, the MIC was 16 µg/mL (≈ 26.9 µM) in test [7], under 0.25 µg/mL in test [8] and 2 µg/mL (≈ 3.37 µM) in test [9].
As for `C[n+]1cccc(SC2=C(C(=O)[O-])N3C(=O)[C@@H](NC(=O)Cc4ccccc4)[C@H]3SC2)c1-c1ccccc1` [Cmpd 82, (7R)-7-[(Phenylacetyl)amino]-3-(2-phenyl-N-methylpyridin-3-iumthio)-3-cephem-4-carboxylate], the minimal inhibitory concentration (MIC) in [1] is 1 µg/mL (≈ 1.93 µM); in [2], 32 µg/mL (≈ 61.8 µM); in test [3], under 0.25 µg/mL; in [4], over 32 µg/mL; in test [5] it was over 32 µg/mL; in test [6] it was under 0.25 µg/mL. Moreover, the values for the MIC in test [7], in [8] and in [9] were 16 µg/mL (≈ 30.9 µM), under 0.25 µg/mL and 4 µg/mL (≈ 7.73 µM), respectively.
For `N#Cc1ccc(SC2=C(C(=O)O)N3C(=O)[C@@H](NC(=O)Cc4ccccc4)[C@H]3SC2)c([N+](=O)[O-])c1` [Cmpd 49, (7R)-7-[(Phenylacetyl)amino]-3-(4-cyano-2-nitrophenylthio)-3-cephem-4-carboxylic acid], the minimal inhibitory concentration (MIC) was 4 µg/mL (≈ 8.06 µM) in test [1]; 32 µg/mL (≈ 64.4 µM) in test [2]; under 0.25 µg/mL in test [3] (S. aureus ATCC 25923, read-out: MIC); over 32 µg/mL in test [4]; over 32 µg/mL in test [5]; under 0.25 µg/mL in [6] (S. epidermidis ATCC 31432, read-out: MIC). Further, the results for the MIC in test [7], in test [8] and in test [9] were 16 µg/mL (≈ 32.2 µM), 0.5 µg/mL (≈ 1.01 µM) and 4 µg/mL (≈ 8.06 µM), respectively.
Turning to `O=C(Cc1ccc(Cl)cc1)N[C@@H]1C(=O)N2C(C(=O)O)=C(Sc3cccnc3-c3ccccc3)CS[C@H]12` [Cmpd 84, (7R)-7-[(4-Chlorophenylacetyl)amino]-3-(2-phenylpyridin-3-ylthio)-3-cephem-4-carboxylic acid], the minimal inhibitory concentration (MIC) in [1] was 1 µg/mL (≈ 1.86 µM); in test [2], 8 µg/mL (≈ 14.9 µM); in test [3], under 0.25 µg/mL; in test [4], over 32 µg/mL; in [5] it was over 32 µg/mL; in test [6] it was under 0.25 µg/mL. Besides, the minimal inhibitory concentration (MIC) in test [7] was 8 µg/mL (≈ 14.9 µM); in test [8] it was under 0.25 µg/mL; in [9], 1 µg/mL (≈ 1.86 µM).
Turning to `CSc1ccccc1SC1=C(C(=O)O)N2C(=O)[C@@H](NC(=O)Cc3ccccc3)[C@H]2SC1` [Cmpd 44, (7R)-7-[(Phenylacetyl)amino]-3-(2-methylthiophenylthio)-3-cephem-4-carboxylic acid], the MIC in [1] was 4 µg/mL (≈ 8.46 µM); in test [2], 8 µg/mL (≈ 16.9 µM); in [3], under 0.25 µg/mL; in test [4], over 32 µg/mL; in test [5] it was over 32 µg/mL; in test [6], under 0.25 µg/mL. Moreover, the minimum inhibitory concentration (MIC) in test [7] is 4 to 8 µg/mL (≈ 8.46 to 16.9 µM); in [8] it was under 0.25 µg/mL; in test [9], 4 µg/mL (≈ 8.46 µM).
